Results published in US20260226105A1, “Antimicrobial And Antibiofilm Peptides Sequences With Metal-Binding Motifs” (The Trustee of the University of Pennsylvania, priority 2021, published 2026).
Values joined by “and” are separate entries in the source; they are usually repeats but may differ in a detail not shown here. Equal values may be shown once. Read-outs that look alike come from different tables or passages of the source. Ends that are not written are not given here.

Experiments:
E. coli (ATCC25922) = details: Table 3, agent alone
E. coli KpC+1812446 = assay type: in vivo, mice; details: infected Balb/C mice, 5 and 10 mg·Kg^−1
Protocol: Male Balb/C (18-20 g) mice from the Biotério Central do Campus da USP in Ribeirão Preto, São Paulo, were kept in groups of 5 per cage at 22° C. with normal cycles of light and free access to food and water. The care and use of the animals were approved by the Ethics Committee of Universidade Católica Dom Bosco number 019/2016. We assessed the ability of the peptides to protect the mice from lethal systemic infections induced with E. coli KpC+1812446. The mice (n=40) were randomly placed into eight groups of five mice each, and each mouse was injected intraperitoneally with 200 μL of saline solution containing 2×10^7 CFU of E. coli KpC+1812446. Intraperitoneal treatment with 5 or 10 mg·Kg^−1 of each peptide was initiated after one hour of infection and repeated at 24 h intervals for seven days^61. Gentamicin at 10 mg·Kg^−1 of body weight and normal saline were used as positive and negative controls, respectively.

[1] = system: K. pneumoniae (KpC+ 1825971)
[2] = system: K. pneumoniae (KpC1825971); details: agent alone, BM2 minimal medium
[3] = system: K. pneumoniae (ATCC13883); details: agent alone, BM2 minimal medium
E. coli (KpC1812446) [4] = details: agent alone, BM2 minimal medium
E. coli (ATCC 25922) [5] = details: agent alone, BM2 minimal medium
[6] = system: E. coli (KpC+1812446) biofilm; details: Biofilm
[7] = system: K. pneumoniae (ATCC 13883); details: MH broth, 12 h, 37° C.
[8] = system: P. aeruginosa (ATCC 27853); details: MH broth, 12 h, 37° C.
E. coli (KpC1812446) [9] = details: Table 3, agent alone
[10] = system: E. coli (KpC+1812446) planktonic cells; details: Planktonic
[11] = system: K. pneumoniae (KpC1825971); details: Table 3, agent alone
MRSA (3730529) = details: MH broth, 12 h, 37° C.
[12] = system: K. pneumoniae (ATCC13883); details: Table 3, agent alone
E. coli (ATCC 25922) [13] = system: E. coli (ATCC 25922)
E. coli (KpC+ 1812446) = details: MH broth, 12 h, 37° C.
[14] = Cu(II) supplemented medium (0.25 μM)

## VIHKWKLFKKIGAVLKVL [VIH-CM15]
E. coli (ATCC25922)
  MIC: 4 µM
E. coli KpC+1812446
  in vivo toxicity: decreased the toxicity of CM15
[1]; [14]
  MIC in Cu(II) supplemented medium: 1 µM
[1]; MH broth, 12 h, 37° C.
  MIC: 1 µM
[2]
  MBIC: 4 µM
[3]
  MBIC: >30 µM
E. coli (KpC1812446) [4]
  MBIC: 8 µM
E. coli (ATCC 25922) [5]
  MBIC: 4 µM
[6]; peptide + AmP
  FICI: 1.5
[6]; peptide + CHL
  FICI: 1.38
[6]; peptide + MER
  FICI: 0.185 and 0.19
[6]; peptide + STR
  FICI: 1.0
[6]; peptide + TRI
  FICI: 1.0
E. coli MG1655; cell-impermeable Cu(II) chelator triethylenetetramine (TETA) 200 μM
  MIC, TETA: 1 µM
E. coli MG1655; cell-permeable Cu(II) chelator tetrathiolmolybdate (TTM) 200 μM
  MIC, TTM: 32 µM
E. coli MG1655; no chelator
  MIC, No Chelator: 0.5 µM
S. aureus (ATCC 25923); [14]
  MIC in Cu(II) supplemented medium: 1 µM
S. aureus (ATCC 25923); MH broth, 12 h, 37° C.
  MIC: 1 µM
[7]
  MIC: 1 µM
[8]
  MIC: 4 µM
E. coli (KpC1812446) [9]
  MIC: 4 µM
[10]; peptide + AmP
  FICI: 2.0
[10]; peptide + CHL
  FICI: 1.0 and 1.002
[10]; peptide + MER
  FICI: 1.0
[10]; peptide + STR
  FICI: 1.29
[10]; peptide + TRI
  FICI: 1.0
E. coli (KpC+ 2101123); [14]
  MIC in Cu(II) supplemented medium: 2 µM
E. coli (KpC+ 2101123); MH broth, 12 h, 37° C.
  MIC: 2 µM
[11]
  MIC: 8 µM
MRSA (3730529)
  MIC: 2 µM
[12]
  MIC: 30 µM
E. coli (ATCC 25922) [13]; [14]
  MIC in Cu(II) supplemented medium: 1 µM
E. coli (ATCC 25922) [13]; MH broth, 12 h, 37° C.
  MIC: 1 µM
E. coli (KpC+ 1812446)
  MIC: 4 µM
